Key:
ABCB1 (P-glycoprotein) [1] = molecular target: T1, ABCB1 (P-glycoprotein) (Homo sapiens, UniProt P08183); assay: TP_TRANSPORTER: inhibition of Digoxin transepithelial transport (basal to apical) (Digoxin: 5 uM, Lovastatin: 100 uM) in Caco-2 cells; type: functional, cell-based; conditions: Caco-2, probe digoxin
[2] = molecular target: T2, ATP-dependent translocase ABCB1 (Homo sapiens, UniProt P08183); assay: TP_TRANSPORTER: transepithelial transport (basal to apical) in MDR1-expressing LLC-PK1 cells; type: functional, cell-based; conditions: pig
T2 sequence (P08183 whole entry): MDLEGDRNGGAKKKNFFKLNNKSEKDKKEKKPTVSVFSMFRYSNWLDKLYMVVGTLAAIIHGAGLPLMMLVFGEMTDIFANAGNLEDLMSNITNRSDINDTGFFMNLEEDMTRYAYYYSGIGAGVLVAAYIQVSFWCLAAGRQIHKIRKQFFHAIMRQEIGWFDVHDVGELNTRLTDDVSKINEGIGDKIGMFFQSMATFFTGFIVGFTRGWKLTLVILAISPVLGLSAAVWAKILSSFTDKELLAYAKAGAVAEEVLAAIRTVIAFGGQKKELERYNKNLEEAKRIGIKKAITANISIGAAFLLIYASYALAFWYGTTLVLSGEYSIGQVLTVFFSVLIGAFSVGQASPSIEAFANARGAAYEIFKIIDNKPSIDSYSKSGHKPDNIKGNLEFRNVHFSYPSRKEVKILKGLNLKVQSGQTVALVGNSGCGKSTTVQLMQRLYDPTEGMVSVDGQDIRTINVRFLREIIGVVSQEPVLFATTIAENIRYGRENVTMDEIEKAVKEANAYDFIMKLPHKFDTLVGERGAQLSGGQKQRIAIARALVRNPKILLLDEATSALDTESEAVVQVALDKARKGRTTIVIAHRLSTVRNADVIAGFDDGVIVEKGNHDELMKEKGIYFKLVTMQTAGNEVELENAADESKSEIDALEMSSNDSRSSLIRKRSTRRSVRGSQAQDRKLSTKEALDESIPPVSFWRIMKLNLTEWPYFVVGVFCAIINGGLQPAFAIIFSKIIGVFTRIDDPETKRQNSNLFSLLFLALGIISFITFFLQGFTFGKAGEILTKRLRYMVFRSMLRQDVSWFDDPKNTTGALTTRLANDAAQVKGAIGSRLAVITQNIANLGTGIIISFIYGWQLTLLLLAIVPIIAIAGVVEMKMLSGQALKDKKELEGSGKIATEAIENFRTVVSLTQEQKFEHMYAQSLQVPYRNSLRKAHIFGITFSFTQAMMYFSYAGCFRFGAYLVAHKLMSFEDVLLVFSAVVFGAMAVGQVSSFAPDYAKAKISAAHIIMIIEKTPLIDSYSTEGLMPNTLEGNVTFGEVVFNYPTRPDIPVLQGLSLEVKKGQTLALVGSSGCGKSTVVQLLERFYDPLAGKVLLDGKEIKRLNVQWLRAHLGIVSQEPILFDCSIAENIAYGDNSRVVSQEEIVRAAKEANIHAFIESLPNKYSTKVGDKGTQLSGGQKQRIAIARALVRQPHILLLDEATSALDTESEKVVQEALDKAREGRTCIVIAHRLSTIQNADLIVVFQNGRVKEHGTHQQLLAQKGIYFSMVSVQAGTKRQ

[3] = molecular target: T2, ATP-dependent translocase ABCB1; assay: TP_TRANSPORTER: inhibition of Digoxin transepithelial transport (basal to apical)(Digoxin: 5 uM, 1-hydroxymidazolam: 100 uM) in Caco-2 cells; type: functional, cell-based; conditions: caco-2, 100 µM
[4] = molecular target: T3, ATP-dependent translocase ABCB1 (Mus musculus, UniProt P21447); assay: TP_TRANSPORTER: no change in plasma concentration in mdr1a(-/-) mouse; type: functional, organism-based; conditions: in vivo
T3 sequence (P21447 whole entry): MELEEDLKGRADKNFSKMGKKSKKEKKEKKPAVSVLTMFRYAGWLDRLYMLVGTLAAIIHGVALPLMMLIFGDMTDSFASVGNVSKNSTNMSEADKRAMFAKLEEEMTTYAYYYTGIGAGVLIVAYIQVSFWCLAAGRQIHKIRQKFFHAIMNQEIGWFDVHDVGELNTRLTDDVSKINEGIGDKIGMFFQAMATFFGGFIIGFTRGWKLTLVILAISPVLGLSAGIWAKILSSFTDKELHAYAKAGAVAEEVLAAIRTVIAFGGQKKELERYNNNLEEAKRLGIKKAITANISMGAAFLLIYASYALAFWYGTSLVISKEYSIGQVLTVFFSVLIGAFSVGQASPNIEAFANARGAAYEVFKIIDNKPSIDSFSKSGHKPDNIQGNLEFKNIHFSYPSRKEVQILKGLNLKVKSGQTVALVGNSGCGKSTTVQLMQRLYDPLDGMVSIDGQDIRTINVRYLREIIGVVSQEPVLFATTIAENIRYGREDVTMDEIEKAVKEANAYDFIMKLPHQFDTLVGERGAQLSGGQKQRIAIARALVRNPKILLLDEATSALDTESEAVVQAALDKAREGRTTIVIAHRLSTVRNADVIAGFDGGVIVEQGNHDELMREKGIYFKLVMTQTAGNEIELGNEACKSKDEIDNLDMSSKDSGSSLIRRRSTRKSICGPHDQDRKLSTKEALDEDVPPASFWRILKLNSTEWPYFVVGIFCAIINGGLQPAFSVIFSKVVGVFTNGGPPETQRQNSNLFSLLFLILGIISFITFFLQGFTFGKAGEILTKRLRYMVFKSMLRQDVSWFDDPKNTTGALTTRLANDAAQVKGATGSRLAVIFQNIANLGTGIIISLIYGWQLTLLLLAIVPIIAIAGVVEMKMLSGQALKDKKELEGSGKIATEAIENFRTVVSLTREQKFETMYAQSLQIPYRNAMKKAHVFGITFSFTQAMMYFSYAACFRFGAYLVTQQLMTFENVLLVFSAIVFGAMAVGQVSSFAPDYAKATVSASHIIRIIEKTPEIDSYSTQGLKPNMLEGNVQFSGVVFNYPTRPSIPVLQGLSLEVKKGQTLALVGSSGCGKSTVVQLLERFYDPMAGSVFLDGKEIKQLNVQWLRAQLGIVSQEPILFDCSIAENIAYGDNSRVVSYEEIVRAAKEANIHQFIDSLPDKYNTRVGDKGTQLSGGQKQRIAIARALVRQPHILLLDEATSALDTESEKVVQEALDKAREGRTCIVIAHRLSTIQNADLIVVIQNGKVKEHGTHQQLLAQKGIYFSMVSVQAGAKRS

[5] = molecular target: T3, ATP-dependent translocase ABCB1; assay: TP_TRANSPORTER: no change in liver concentration in mdr1a(-/-) mouse; type: functional, organism-based; conditions: in vivo
[6] = molecular target: T3, ATP-dependent translocase ABCB1; assay: TP_TRANSPORTER: no change in kidney concentration in mdr1a(-/-) mouse; type: functional, organism-based; conditions: in vivo
ABCB1 (P-glycoprotein) [7] = molecular target: T1, ABCB1 (P-glycoprotein); assay: TP_TRANSPORTER: inhibition of Digoxin transepithelial transport (basal to apical) (Digoxin: 5 uM, Erythromycin: 100 uM) in Caco-2 cells; type: functional, cell-based; conditions: Caco-2, probe digoxin
ABCB1 (P-glycoprotein) [8] = molecular target: T1, ABCB1 (P-glycoprotein); assay: TP_TRANSPORTER: inhibition of Digoxin transepithelial transport (basal to apical)(Digoxin: 5 uM, Midazolam: 100 uM) in Caco-2 cells; type: functional, cell-based; conditions: Caco-2, probe digoxin
ABCB1 (P-glycoprotein) [9] = molecular target: T1, ABCB1 (P-glycoprotein); assay: TP_TRANSPORTER: inhibition of Digoxin transepithelial transport (basal to apical)(Digoxin: 5 uM, Terfenadine: 10 uM) in Caco-2 cells; type: functional, cell-based; conditions: Caco-2, probe digoxin
ABCB1 (P-glycoprotein) [10] = molecular target: T1, ABCB1 (P-glycoprotein); assay: TP_TRANSPORTER: inhibition of Digoxin transepithelial transport (basal to apical) (Digoxin: 5 uM, S-mephenytoin: 100 uM) in Caco-2 cells; type: functional, cell-based; conditions: Caco-2, probe digoxin
ABCB1 (P-glycoprotein) [11] = molecular target: T1, ABCB1 (P-glycoprotein); assay: TP_TRANSPORTER: inhibition of Digoxin transepithelial transport (basal to apical)(Digoxin: 5 uM, Tamoxifen: 100 uM) in Caco-2 cells; type: functional, cell-based; conditions: Caco-2, probe digoxin
ABCB1 (P-glycoprotein) [12] = molecular target: T1, ABCB1 (P-glycoprotein); assay: TP_TRANSPORTER: inhibition of Digoxin transepithelial transport (basal to apical)(Digoxin: 5 uM, 6beta-hydroxycortisol: 100 uM) in Caco-2 cells; type: functional, cell-based; conditions: Caco-2, probe digoxin

T1 sequence (P08183 whole entry): as the sequence (P08183 whole entry) above

CC[C@H](C)C(=O)O[C@H]1C[C@@H](C)C=C2C=C[C@H](C)[C@H](CC[C@@H]3C[C@@H](O)CC(=O)O3)[C@H]21 [LOVASTATIN]
inhibition at 100 µM (ABCB1 (P-glycoprotein) [1]): 65%

N=C(N)N1CCc2ccccc2C1 [DEBRISOQUIN]
Activity [2]: substrate [+]

OCc1ncc2n1-c1ccc(Cl)cc1C(c1ccccc1F)=NC2 [ALPHA-HYDROXY-MIDAZOLAM]
Activity [3]: 63

IVERMECTIN
Activity [4]: is not a substrate [-] | Activity [5]: is not a substrate [-] | Activity [6]: is not a substrate [-]

CC[C@H]1OC(=O)[C@H](C)[C@@H](O[C@H]2C[C@@](C)(OC)[C@@H](O)[C@H](C)O2)[C@H](C)[C@@H](O[C@@H]2O[C@H](C)C[C@H](N(C)C)[C@H]2O)[C@](C)(O)C[C@@H](C)C(=O)[C@H](C)[C@@H](O)[C@]1(C)O [ERYTHROMYCIN]
inhibition at 100 µM (ABCB1 (P-glycoprotein) [7]): 101%

COC(=O)C1=C(C)NC(C)=C(C(=O)OC)C1c1ccccc1[N+](=O)[O-] [NIFEDIPINE]
Activity [2]: is not a substrate [-]

Cc1ncc2n1-c1ccc(Cl)cc1C(c1ccccc1F)=NC2 [MIDAZOLAM]
inhibition at 100 µM (ABCB1 (P-glycoprotein) [8]): 74% | Activity [2]: is not a substrate [-]

CC(C)(C)c1ccc(C(O)CCCN2CCC(C(O)(c3ccccc3)c3ccccc3)CC2)cc1 (centres undefined) [TERFENADINE]
inhibition at 10 µM (ABCB1 (P-glycoprotein) [9]): 112%

CC[C@@]1(c2ccccc2)NC(=O)N(C)C1=O
inhibition at 100 µM (ABCB1 (P-glycoprotein) [10]): 42%

CC/C(=C(\c1ccccc1)c1ccc(OCCN(C)C)cc1)c1ccccc1 [TAMOXIFEN]
inhibition at 100 µM (ABCB1 (P-glycoprotein) [11]): 86%

C[C@]12CCC(=O)C=C1[C@H](O)C[C@@H]1[C@@H]2[C@@H](O)C[C@@]2(C)[C@H]1CC[C@]2(O)C(=O)CO
inhibition at 100 µM (ABCB1 (P-glycoprotein) [12]): 57%

— ChEMBL document CHEMBL2073809, “Interrelationship between substrates and inhibitors of human CYP3A and P-glycoprotein” (Pharm Res, 1999)
